In PubChem BioAssay AID1996:
Converted amounts (≈) assume the structure as drawn.

Details: buffer; pH 7.4; 200.0 µM

SMILES | solubility kinetic
CCC1(CC)C(=O)N(C)C(=O)NC1=NC | > 31.7 µg/mL
CCc1nc2sc3c(Cl)ncnc3c2c2c1CCCC2 | < 0.2 µg/mL
CCOc1ccc(NC(=O)N[C@@H](Cc2ccccc2)C(=O)O)cc1 | > 49.3 µg/mL
Cc1cnc(C(=O)Nc2ccc(OC(F)(F)F)cc2)cn1 | 2.6 µg/mL (≈ 8.75 µM)
Cc1nc2ccccc2n1Cc1ccc(Br)cc1 | 37.8 µg/mL (≈ 126 µM)
Cc1ccc2nc(C)c3c(c2c1)SCC3 | 11.3 µg/mL (≈ 52.5 µM)
CCOc1nc(NCCO)nc(Nc2ccccc2F)n1 | > 44 µg/mL
CCN(c1ccccc1)c1nc(=O)c2cccnc2s1 | > 42.5 µg/mL
O=[N+]([O-])c1ccccc1OCCN1CCCC1 | 25.5 µg/mL (≈ 108 µM)
Cc1cc(=O)[nH]c(NCc2ccc(Cl)cc2)n1 | > 37.5 µg/mL
O=C(CSc1ncnc2c1oc1ccccc12)NC1CCCC1 | 3.4 µg/mL (≈ 10.4 µM)
COc1ccccc1OCCNC(=O)C(=O)c1c[nH]c2ccccc12 | 37.2 µg/mL (≈ 110 µM)
COc1ccc(OC)c(NC(=O)COC(=O)CCc2nc3ccccc3c(=O)[nH]2)c1 | > 61.7 µg/mL
O=C(Nc1cccc(S(=O)(=O)N2CCCC2)c1)c1ccc(Cl)nc1 | 15.6 µg/mL (≈ 42.6 µM)
CC(OC(=O)CN1C(=O)c2ccccc2C1=O)C(=O)NC1CCCC1 (stereo not given) | > 51.7 µg/mL
CC1CCCC(C)N1C(=O)COC(=O)c1ccc([N+](=O)[O-])o1 (stereo not given) | > 46.5 µg/mL
COc1cccc(NC(=O)c2cnc(SC)nc2)c1 | 14.3 µg/mL (≈ 51.9 µM)
O=C(Nc1ccc(Cl)cc1)Nc1ccc(Oc2cccnc2)nc1 | 0.7 µg/mL (≈ 2.05 µM)
O=C(Cc1ccccc1)Nc1ccc(NC(=O)c2cccnc2)cc1 | 3.2 µg/mL (≈ 9.66 µM)
COC(=O)CNc1nc(Cl)nc(N2CCC(C)CC2)n1 | 39.5 µg/mL (≈ 132 µM)

SMILES | solubility kinetic
CCc1nc(C)cc2c1sc1ccccc12.Cl | 1 µg/mL
O=C1CN(C(=S)NC(=O)c2ccccc2[N+](=O)[O-])CCN1 | > 46.2 µg/mL
CC(C)(C)NS(=O)(=O)c1ccc(NC(=S)NC(=O)C2CCC2)cc1 | 1.1 µg/mL (≈ 2.98 µM)
CCOC(=O)C1C(c2ccc(Cl)cc2)NC(=S)NC1(O)C(F)(F)F (stereo not given) | 37.8 µg/mL (≈ 98.7 µM)
COc1ccccc1N1C(=O)c2cccnc2C1=O | 34.9 µg/mL (≈ 137 µM)
CC1CCN(C(=O)c2ccc([N+](=O)[O-])o2)CC1 | > 35.7 µg/mL
O=C(CCc1ccccc1)NCC1OCCc2ccccc21 (stereo not given) | > 44.3 µg/mL
CC1CCN(CCCNc2cc(NCCO)c([N+](=O)[O-])c3nonc23)CC1 | > 56.8 µg/mL
Cc1nn(C)cc1S(=O)(=O)Nc1ccc(F)c(F)c1 | > 43.1 µg/mL
CC(C)CCN1CCN(Cc2nc3ccccc3s2)CC1CCO (stereo not given) | > 52.1 µg/mL
CC1=NOC(=O)/C1=C\c1ccc2c(c1)OCO2 | 32 µg/mL (≈ 138 µM)
CCCCC(CC)C(=O)Nc1cc(=O)[nH]c2nc3ccccc3n12 (stereo not given) | 1.9 µg/mL (≈ 5.82 µM)
O=C(COC(=O)c1cncc(Br)c1)NC1CCCC1 | > 49.1 µg/mL
C/C(Cn1ncc(N2CCOCC2)c(Cl)c1=O)=N\O | > 43 µg/mL
O=C(Nc1ccccc1)c1ccccc1NC(=O)c1ccccc1[N+](=O)[O-] | 7.5 µg/mL (≈ 20.8 µM)
COc1ccc(NC(=O)Nc2c[nH]c(=O)[nH]c2=O)cc1OC | 44.8 µg/mL (≈ 146 µM)
CN(C)/C=C/C(=O)C(F)(F)F | 17.9 µg/mL (≈ 107 µM)
Cc1cccc(CSc2nnc([C@@H]3CCCN3)o2)c1.Cl | > 46.8 µg/mL
O=[N+]([O-])c1ccc(-c2cn(-c3ccccc3F)c(=S)[nH]2)cc1 | 0.6 µg/mL (≈ 1.9 µM)
CCC(CC)COC(=O)C1=C(C)NC(=O)NC1c1ccc(OC)cc1 (stereo not given) | 3 µg/mL (≈ 8.66 µM)

SMILES | solubility kinetic
O=C(COC(=O)CCSc1ccccc1)NCc1ccccc1 | > 49.4 µg/mL
O=C1Nc2ccc(Br)cc2C1(O)c1ccc(F)cc1 (stereo not given) | > 48.3 µg/mL
O=C(N/N=C/c1cccc(O)c1)c1ccccc1O | > 38.4 µg/mL
O=C(CCNC(=O)c1ccco1)Nc1ccccc1 | > 38.7 µg/mL
CN(C)c1ccc(/C=C(/NC(=O)c2ccccc2)C(=O)N2CCCC2)cc1 | 47.7 µg/mL (≈ 131 µM)
O=Cc1c(NCCCN2CCCC2=O)c2ccccc2[nH]c1=O | > 47 µg/mL
COc1ccc(CNc2ccc3c(c2)nc(C)n3C)cc1OC | 37.2 µg/mL (≈ 119 µM)
O=C(Cc1ccc2ccccc2c1)Nc1ccccc1Br | < 0.7 µg/mL
O=C(CC(=O)Nc1cccnc1)Nc1cccnc1 | > 38.4 µg/mL
Cc1cc(N2CC(C)OC(C)C2)nc(C(C)C)n1 (stereo not given) | 21.9 µg/mL (≈ 87.8 µM)
CCOC(=O)c1c(/N=C/c2ccc(OC)cc2O)sc2c1CCN(C)C2 | 37 µg/mL (≈ 98.8 µM)
CCCOc1ccc(C2=CSC3=NCCN23)cc1.Cl | 37.4 µg/mL
COc1ccc(CNC(=O)N2CCN(c3ccccc3)CC2)cc1 | 3.5 µg/mL (≈ 10.8 µM)
CC(=O)c1ccc(S(=O)(=O)N2CCCc3ccccc32)cc1 | 24.5 µg/mL (≈ 77.7 µM)
COc1ccc(CCNC(=O)CCNC(=O)c2ccco2)cc1 | > 47.5 µg/mL
COC(=O)c1cc2c(=O)c3ccccc3oc2nc1/C=C/N(C)C | 30.1 µg/mL (≈ 92.8 µM)
COc1ccc(NC(=O)COC(=O)C2CCN(S(=O)(=O)c3cccs3)CC2)cc1OC | 47.1 µg/mL (≈ 101 µM)
CCOC(=O)C(=O)N(CC)C1CCS(=O)(=O)C1 (stereo not given) | > 39.5 µg/mL
N#Cc1ccccc1OCC(=O)NC(=O)NCc1ccco1 | 7.4 µg/mL (≈ 24.7 µM)
O=C(Nc1ccc(Br)cc1)N1CCc2ccccc2C1 | 1.1 µg/mL (≈ 3.32 µM)
